“And” between values parts separate entries of the source, which are not always exact repeats. Equal entries are not always repeated. Structures can show the parent of a compound that is named as a salt. Where two headings read alike, the source gives them in different places.
Key:
[1] = test system: SirT1 levels in N2a-E4 cells; assay: SirT1 levels by AlphaLISA in ApoE4-transfected N2a cells; format: cell-based, murine
Experimental: Prompted by the emerging importance of the associations between ApoE4 and the expression/protein levels of SirT1, high-throughput screening (HTS) of the UCLA compound library was performed using AlphaLISA to detect SirT1 levels in murine neuroblastoma cells stably transfected with ApoE4 (E4-N2a) to identify SirT1 enhancers. […] In the in vivo study, mice were treated orally at 40 mkd (20 mg/kg BID) for 56 days and underwent assessment of cognition in the Novel Object Recognition (NOR) testing paradigm. […] The performance of A03-treated E4-AD mice (FIG. 5A) improved to level of non-transgenic vehicle-treated mice.

PRMT8 = PRMT8 (Homo sapiens, UniProt Q9NR22); assay: Cell-free PRMT enzyme activity assay, PRMT8; format: biochemical; conditions: cell-free assay; A03 at 5 μM
Sequence of PRMT8 (Q9NR22 whole entry, species assumed): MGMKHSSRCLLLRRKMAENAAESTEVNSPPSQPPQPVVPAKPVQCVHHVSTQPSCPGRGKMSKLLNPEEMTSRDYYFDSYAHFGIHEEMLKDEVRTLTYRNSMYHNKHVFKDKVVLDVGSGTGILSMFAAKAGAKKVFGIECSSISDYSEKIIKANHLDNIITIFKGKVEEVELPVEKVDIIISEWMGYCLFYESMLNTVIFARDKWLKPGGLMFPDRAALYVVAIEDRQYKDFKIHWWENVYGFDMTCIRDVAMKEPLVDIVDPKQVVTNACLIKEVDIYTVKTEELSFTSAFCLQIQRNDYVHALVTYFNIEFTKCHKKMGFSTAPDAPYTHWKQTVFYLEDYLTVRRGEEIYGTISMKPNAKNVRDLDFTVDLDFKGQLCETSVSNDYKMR
From the text: (§1) Due both the sequence homology and functional similarity of PRMT family members, in follow-up experiments PRMT 1, 4, and 8 inhibitors as well as assays for inhibition by those PRMTs were used. […] This profile may be due to its binding to an allosteric site on the PRMT8 enzyme and needs further kinetic analysis. […] The mode & inhibition kinetics to be investigated in the renewal grant.
Testing of additional A03 analogs are ongoing. For affinity purification, DDL215 that was used through clicking to beads. […] An initial correlation between cell-free PRMT8 inhibition and neuronal SirT1 enhancement (in cells) at 5 μM was seen (FIG. 10B).

PRMT4 = target: T1, PRMT4 (Homo sapiens, UniProt Q86X55); assay: Cell-free PRMT enzyme activity assay, PRMT4; format: biochemical; conditions: A03 at 5 μM
T1 sequence (Q86X55 1-608): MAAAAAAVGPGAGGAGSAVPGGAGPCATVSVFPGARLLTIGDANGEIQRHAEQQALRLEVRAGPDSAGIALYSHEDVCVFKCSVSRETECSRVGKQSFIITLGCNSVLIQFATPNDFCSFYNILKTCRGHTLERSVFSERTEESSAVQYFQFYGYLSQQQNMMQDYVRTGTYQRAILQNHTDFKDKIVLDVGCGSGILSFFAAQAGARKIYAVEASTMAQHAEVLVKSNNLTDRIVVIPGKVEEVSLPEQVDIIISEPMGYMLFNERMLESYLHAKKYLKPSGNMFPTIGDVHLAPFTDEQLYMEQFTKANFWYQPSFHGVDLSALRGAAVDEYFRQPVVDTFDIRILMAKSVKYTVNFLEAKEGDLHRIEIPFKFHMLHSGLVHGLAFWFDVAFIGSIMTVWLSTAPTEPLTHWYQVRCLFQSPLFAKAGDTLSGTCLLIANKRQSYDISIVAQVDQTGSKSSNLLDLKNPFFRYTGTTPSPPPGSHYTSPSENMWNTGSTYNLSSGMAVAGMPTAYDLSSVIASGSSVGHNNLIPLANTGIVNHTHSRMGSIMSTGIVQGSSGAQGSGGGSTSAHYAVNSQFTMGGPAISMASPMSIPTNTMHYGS
From the text: as §1

| PAMPA (PAMPA) | PRMT8 inhibition (PRMT8) | PRMT4 inhibition (PRMT4) | Compound | SirT1 SOμM [1] | SirT1 SμM [1] | PAMPA (PAMPA; PAMPA) |
| --- | --- | --- | --- | --- | --- | --- |
| – | – | – | CC(C)(Cc1ccc(F)c(F)c1)NC(=O)[C@@H](N)c1ccccc1 [MP-37] | a (a <250%) | A (A >20%) | 1.81 |
| – | – | – | C[C@H](N)C(=O)OC(C)(C)Cc1ccc(Cl)cc1 [MP-41, 1-(4-chlorophenyl)-2-methylpropan-2-yl L-alaninate] | A, A (A >20%) | A, A (A >20%) | 3.88 |
| – | – | – | C[C@@H](N)C(=O)OC(C)(C)Cc1ccc(Cl)cc1 [MP-42, 1-(4-chlorophenyl)-2-methylpropan-2-yl D-alaninate] | a, a (a <250%) | a, a (a <250%) | 3.9 |
| 1.59 | – | – | C[C@H](N)C(=O)NC(C)(C)Cc1cc(F)cc(F)c1 [MP-43, (S)-2-amino-N-(1-(3,5-difluorophenyl)-2-methylpropan-2-yl)propanamide] | A, A (A >20%) | A, A (A >20%) | – |
| 1.57 | – | – | C[C@@H](N)C(=O)NC(C)(C)Cc1cc(F)cc(F)c1 [MP-44, (R)-2-amino-N-(1-(3,5-difluorophenyl)-2-methylpropan-2-yl)propanamide] | A (A >20%) | a (a <250%) | – |
| 1.76 | – | – | C[C@H](N)C(=O)NC(C)(C)Cc1ccc(Br)cc1 [MP-47, (S)-2-amino-N-(1-(4-bromophenyl)-2-methylpropan-2-yl)propanamide] | A (A >20%) | B (B >50%) | – |
| 0.4 | – | – | C[C@H](N)C(=O)OC(C)(C)Cc1ccncc1 [MP-48, 2-methyl-1-(pyridin-4-yl)propan-2-yl alaninate] | B (B >50%) | A (A >20%) | – |
| 3.36 | – | – | C#Cc1ccc(CC(C)(C)OC(=O)[C@H](C)N)cc1 [MP-50, 1-(4-ethynylphenyl)-2-methylpropan-2-yl alaninate] | B (B >50%) | A (A >20%) | – |
| 2.25 and 2.38 | – | – | C[C@H](N)C(=O)NC(C)(Cc1ccc(F)cc1)Cc1ccc(F)cc1 [MP-51, (S)-2-amino-N-(1,3-bis(4-fluorophenyl)-2-methylpropan-2-yl)propanamide] | C (C = 100% increase versus control) | A (A >20%) | – |
| 1 | – | – | C[C@@H](N)C(=O)NC(C)(Cc1ccc(F)cc1)Cc1ccc(F)cc1 [MP-52, (R)-2-amino-N-(1,3-bis(4-fluorophenyl)-2-methylpropan-2-yl)propanamide] | A, A (A >20%) | A, A (A >20%) | – |
| 0.49 | – | – | CC(=O)c1ccc(CC(C)(C)NC(=O)[C@H](C)N)cc1 [MP-53, (S)—N-(1-(4-acetylphenyl)-2-methylpropan-2-yl)-2-aminopropanamide] | B (B >50%) | A (A >20%) | – |
| 5.06 | – | – | C[C@H](N)C(=O)Nc1ccc2ccccc2c1 [MP-55, (S)-2-amino-N-(naphthalen-2-yl)propanamide] | B (B >50%) | A (A >20%) | – |
| 1.81 | – | – | C[C@H](N)C(=O)NC1Cc2ccccc2C1 [MP-56, (S)-2-amino-N-(2,3-dihydro-1H-inden-2-yl)propanamide] | C (C = 100% increase versus control) | A (A >20%) | – |
| 1.6(2) | – | – | C[C@H](N)C(=O)Nc1ccccc1-c1ccc(F)cc1 [MP-57, (S)-2-amino-N-(4′-fluoro-[1,1′-biphenyl]-2-yl)propanamide] | B (B >50%) | A (A >20%) | – |
| 0.29 | – | – | CC(C)(Cc1ccc(Br)cc1)NC(=O)[C@@H](N)CCC(=O)O [MP-61, (S)-4-amino-5-((1-(4-bromophenyl)-2-methylpropan-2-yl)amino)-5-oxopentanoic acid] | B (B >50%) | A (A >20%) | – |
| 1.67 | – | – | C#CC[C@H](N)C(=O)NC(C)(C)Cc1ccc(Br)cc1 [MP-62, (S)-2-amino-N-(1-(4-bromophenyl)-2-methylpropan-2-yl)pent-4-ynamide] | B (B >50%) | A (A >20%) | – |
| 0.59 | – | – | COC(=O)N[C@H]1Cc2ccccc2CNC1=O [MP-70] | A, A (A >20%) | A, A (A >20%) | – |
| 11.07(2) | – | – | O=C1NCN[C@H]1Cc1ccc(Cl)cc1 [MP-72, (S)-5-(4-chlorobenzyl)imidazolidin-4-one] | A, A (A >20%) | A, A (A >20%) | – |
| 0.68 | – | – | O=C(N[C@H]1Cc2ccccc2CNC1=O)OCc1ccccc1 [MP-73, (S)-benzyl (3-oxo-2,3,4,5-tetrahydro-1H-benzo[c]azepin-4-yl)carbamate] | a, a (a <250%) | a, a (a <250%) | – |
| 1.55 | – | – | O=C(N[C@H]1Cc2ccccc2CNC1=O)OCC1c2ccccc2-c2ccccc21 [MP-74, (S)-(9H-fluoren-9-yl)methyl (3-oxo-2,3,4,5-tetrahydro-1H-benzo[c]azepin-4-yl)carbamate] | a, a (a <250%) | a, a (a <250%) | – |
| 2.71 | – | – | CC(N)C(=O)OC(C)(C)Cc1ccc(C(F)(F)F)cc1.Cl (centres unmarked) [MP-76, 2-methyl-1-(4-(trifluoromethyl)phenyl)propan-2-yl 2-aminopropanoate hydrochloride] | A, A (A >20%) | A, A (A >20%) | – |
| 1.61 | – | – | C[C@H](NC(=O)OC(C)(C)C)C(=O)NC(C)(C)Cc1ccc(C(F)(F)F)cc1 [MP-77, (S)-tert-butyl (1-((2-methyl-1-(4-(trifluoromethyl)phenyl)propan-2-yl)amino)-1-oxopropan-2-yl)carbamate] | a, a (a <250%) | a, a (a <250%) | – |
| 1.93 | – | – | C[C@H](N)C(=O)NC(C)(C)Cc1ccc(C(F)(F)F)cc1 [MP-78, (S)-2-amino-N-(2-methyl-1-(4-(trifluoromethyl)phenyl)propan-2-yl)propanamide hydrochloride] | B (B >50%) | A (A >20%) | – |
| 1.74 | – | – | CC(C)(N)C(=O)NCCc1ccc(Cl)cc1 [MP-79, 2-amino-N-(4-chlorophenethyl)-2-methylpropanamide] | B (B >50%) | A (A >20%) | – |
| – | inhibits all 3 enzymes | inhibits all 3 enzymes | CC(C)Oc1ccc(-c2c[nH]cc2CN(C)CCN)cc1 [MS23] | – | – | – |

| Compound | PAMPA (PAMPA) | PRMT8 inhibition (PRMT8) | PRMT4 inhibition (PRMT4) | SirT1 SOμM [1] | SirT1 SμM [1] | PAMPA (PAMPA; PAMPA) |
| --- | --- | --- | --- | --- | --- | --- |
| C[C@H](N)C(=O)NC(C)(C)Cc1cccc(C(F)(F)F)c1 [MP-39, (S)-2-amino-N-(2-methyl-1-(3-(trifluoromethyl)phenyl)propan-2-yl)propanamide] | 1.7 | – | – | A, A (A >20%) | A, A (A >20%) | – |
| C[C@@H](N)C(=O)NC(C)(C)Cc1cccc(C(F)(F)F)c1 [MP-40, (R)-2-amino-N-(2-methyl-1-(3-(trifluoromethyl)phenyl)propan-2-yl)propanamide] | 1.78 | – | – | A, A (A >20%) | A, A (A >20%) | – |
| C[C@H](N)C(=O)NC(C)(C)Cc1ccc(CC(F)(F)F)cc1 [MP-58, (S)-2-amino-N-(2-methyl-1-(4-(2,2,2-trifluoroethyl)phenyl)propan-2-yl)propanamide] | 1.28 | – | – | C (C = 100% increase versus control) | A (A >20%) | – |
| C#Cc1ccc(CC(C)(C)NC(=O)[C@H](C)N)cc1 [MP-59, (S)-2-amino-N-(1-(4-ethynylphenyl)-2-methylpropan-2-yl)propanamide] | 2.49 | – | – | A, A (A >20%) | A, A (A >20%) | – |
